{"source": "patent US20100173331A1", "about": "“NOVEL NOTCH-ORIGIN POLYPEPTIDES AND BIOMARKERS AND REAGENTS USING THE SAME” (priority 2002, published 2010)", "target": "T1, presenilin (Homo sapiens, UniProt P49768)", "T1 construct": "endogenous in cells; probably K293", "assay": "Pulse-chase of cells stably expressing F-NEXT with or without γ-secretase inhibitor; immunoprecipitation/SDS-PAGE of media (Nβ release) and lysates (NICD)", "type": "cell-based", "settings": "1 μM inhibitor, 1 hour pulse, 2-hour chase", "method": "Human embryonic kidney 293 (K293), N2a and COS cells were cultured in DMEM supplemented with 10% fetal bovine serum, 1% penicillin/streptomycin, and 200 μg/ml zeocin (to select for PS1 expression), and/or 100 μg/ml hygromycin (to select for NΔE and F-NEXT expression). The K293 can stably express wild-type PS1, PS1 L286V, or PS1 D385N (Okochi et al, 2000, Kulic et al, 2000, Wolfe et al., 1999). The transfection with NΔE or F-NEXT was performed by means of a product named Lipofectamine 2000 (Invitrogen).\nTo determine NΔE N-terminal fragment (NTF: Nβ) release from NΔE expressing cells, K293 cells stably transfected with NΔE or NICD were grown to confluence in a 10 cm dish. The cells were then metabolically pulse-labeled for 2 hours with 300 μCi [^3H] amino acids (tritiated amino acid mixture, Amersham) in Earle's Balanced Salt Solution supplemented with MEM Vitamine Solution (Gibco) and several cold amino acids, followed by a 6-hour chase by 10% FCS/DMEM. To examine Nβ release, cells expressing F-NEXT were, at first, starved of methinine for 40 min with methionine-free media and then pulse-labeled for 1 hour with 400 μCi [^35S] amino acid mixture (Redivue Promix, Amersham) in methionine-free DMEM, followed by chasing for various time periods with the chase media containing 10% FCS/DMEM supplemented with excess cold methionine. […]"}
{"smiles": "CC(C)C[C@H](NC(=O)[C@H](Cc1ccccc1)C[C@@H](O)[C@H](Cc1ccccc1)NC(=O)OC(C)(C)C)C(=O)N[C@@H](Cc1ccccc1)C(N)=O", "note": "[L685,458, [(2R,4R,5S)-2-Benzyl-5-(Boc-amino)-4-hydroxy-6-phenyl-hexanoyl]-Leu-Phe-NH2]", "values": [{"measurement": "NICD band in cell lysates (S3 cleavage), immunoprecipitated with 9E10", "setting": "FIG. 5B lower panel", "value": "hardly visible"}, {"measurement": "Nβ release to culture media (S4 cleavage), immunoprecipitated with M2-agarose", "setting": "FIG. 5B upper panel", "value": "decreased drastically"}]}
